According to patent US11865110B2, “Thrombin inhibitors, formulations, and uses thereof” (VERSEON INTERNATIONAL CORPORATION, priority 2018, dated 2024):
Where two headings read alike, the source gives them in different places.

Key:
Rat pharmacokinetics = assay type: in vivo; settings: Sprague-Dawley, plasma, SD rats; for C0: C0 by extrapolation
Procedure: Rat pharmacokinetic data were generated as follows. Compounds were administered intravenously (IV) via tail vein or orally (PO) via gastric gavage to Sprague-Dawley rats fitted with surgically implanted jugular vein catheters (JVC) with nominal weights between 250 and 275 g. Nominal doses were 1 mg/kg and 5 mg/kg for IV and PO, respectively. The doses for IV administration were formulated by dissolving the test compound in a mixture (v/v/v) of 5% N,N-dimethylacetamide (DMA), 15% Kolliphor® (Solutol®) HS15, and 80% sterile water at a dose concentration of 0.25 mg/mL. The doses for PO administration were formulated either as Option A or Option B. Option A was formulated by dissolving the test compound in a mixture (v/v) of 90% Kolliphor® (Solutol®) HS15 and 10% pure ethanol at a dose concentration of 0.25 mg/mL. Option B was formulated by dissolving the test compound in a mixture (v/v) of 20% Labrasol® and 80% Phosphate buffer at pH 6.8.
Animals were housed in standard holding cages with food and water available ad libitum except for animals used for PO dosing which were fasted overnight prior to dosing. One to three rats were used for each experiment. Samples were collected manually via its JVC just before the dosing, as well as at the time points of 5 min, 15 min, 30 min, 60 min, 120 min, 4 h, 8 h, 12 h, and 24 h. Alternatively, samples were collected automatically by transferring the animal to a BASi Culex® automated blood-sampling system for the duration of the experiment. Plasma was obtained by centrifuge and stored frozen until analyzed by LC-MS/MS using an AB Sciex™ QTrap® 5500 coupled to a Shimadzu Nexera X2 fitted with a Luna® Omega 1.6 μm Polar C18 100 Å, 50×2.1 mm, acquired from Phenomenex®. Samples were compared against a standard curve of the test compound at concentrations ranging from 10,000 to 0.3 ng/mL.
Pharmacokinetic parameters were calculated from mean concentration values using a non-compartmental analysis as described below and as apparent to those of ordinary skill in the art. Concentration at time zero (C0) for the IV was established by the extrapolation of log linear regression using equal weighting on the first three sample time points. Area under the curve (AUC) values were calculated using linear trapezoidal integration.

[1] = Rat liver microsome stability; assay type: in vitro ADME; settings: Sprague-Dawley, pH 7.4; SD rat liver microsomes 0.5 mg/mL, NADPH, 37° C.; lower measurable bound 5
Procedure: (§1) In a 96-well Nunc™ plate, 1.5 μL of a 200 μM solution of the test compound in DMSO were placed in a well. This plate, the “Reaction Plate,” was then warmed to 37° C. in an oven. In a second 96-well Nunc™ plate, the “Quench Plate,” six wells were filled with 180 μL of an internal standard quench solution composed of 100 nM diclofenac in acetonitrile. These six wells correspond to the six time points for data collection: 0, 0.5, 5, 15, 30, and 60 minutes. “Assay Buffer” was prepared by combining 6.96 g potassium phosphate, dibasic, 1.36 g potassium phosphate, monobasic, and 0.30 g of magnesium chloride hexahydrate, then diluting to a final concentration of 500 mL in water and adjusting to pH 7.4, as needed. Assay Buffer was warmed to 37° C., and 12 mL were added to a 10-mg vial of NADPH. Then 300 μL of a 20 mg/mL liver microsome suspension were added to yield a 0.5 mg/mL liver microsome suspension. 300 μL of this liver microsome suspension was then added to the test compound solution in the Reaction Plate and mixed thoroughly with a pipette tip. At each time point, 30 μL of this mixture was transferred to the corresponding well of the Quench Plate. In between time points, the Reaction Plate was kept sealed and warmed in an incubator at 37° C. When the last time point had been completed, the quench plate was centrifuged at 4° C. at 1000×g for 10 minutes. Afterwards, 50 μL of the supernatant of each well was transferred to unique, corresponding wells of a 96-well Costar® plate, the “Analysis Plate,” filled with 150 μL of 50:50 acetonitrile:HyClone™ water. The Analysis Plate was then sealed with a pre-slit plate seal before analysis via an appropriate LCMS method with a 10 μL injection. The abstracted AUC data were then automatically plotted to calculate intrinsic clearance in μL/min/mg. This experiment was run alongside a positive and negative control. Due to the parameters of this procedure, one of skill in the art will appreciate that this assay has a lower measurable bound of 5 μL/min/mg; therefore, certain compounds have their clearances labeled as ≤5 μL/min/mg.

[2] = Mouse liver microsome stability; assay type: in vitro ADME, mouse (CD-1); settings: pH 7.4; CD-1 mouse liver microsomes 0.5 mg/mL, NADPH, 37° C.; lower measurable bound 5
Procedure: as §1

[3] = PO 5 mg/kg, Formulation A (90% Kolliphor HS15, 10% ethanol)
[4] = PO 5 mg/kg, Formulation A (90% Kolliphor HS15, 10% ethanol), read-out: PO AUC
[5] = PO 5 mg/kg, Formulation B (20% Labrasol, 80% phosphate buffer pH 6.8)
[6] = PO 5 mg/kg, Formulation B (20% Labrasol, 80% phosphate buffer pH 6.8), read-out: PO AUC

CC(C)(C)C(=O)n1nc(-c2cccn(CCC(=O)O)c2=O)cc1NCc1ccc(Cl)s1 [Compound 1, 3-[3-(5-{[(5-chlorothiophen-2-yl)methyl]amino}-1-(2,2-dimethylpropanoyl)-1H-pyrazol-3-yl)-2-oxo-1,2-dihydropyridin-1-yl]propanoic acid]
C0 (Rat pharmacokinetics; IV 1 mg/kg): 6500 ng/mL | AUC (Rat pharmacokinetics; IV 1 mg/kg, read-out: IV AUC): 3000 ng·h/mL | Cmax (Rat pharmacokinetics; [3]): 240 ng/mL | AUC (Rat pharmacokinetics; [4]): 2200 ng·h/mL | microsomal CLint at 1 µM [1]: ≤ 5 µL/min/mg | microsomal CLint at 1 µM [2]: 5 to 11 µL/min/mg

O=C(O)CCn1cccc(-c2cc(NCc3ccc(Cl)s3)[nH]n2)c1=O [Compound 2, 3-[3-(5-{[(5-chlorothiophen-2-yl)methyl]amino}-1H-pyrazol-3-yl)-2-oxo-1,2-dihydropyridin-1-yl]propanoic acid]
C0 (Rat pharmacokinetics; IV 1 mg/kg): 5600 ng/mL | AUC (Rat pharmacokinetics; IV 1 mg/kg, read-out: IV AUC): 760 ng·h/mL | Cmax (Rat pharmacokinetics; [5]): 150 ng/mL | AUC (Rat pharmacokinetics; [6]): 140 ng·h/mL | microsomal CLint at 1 µM [1]: ≤ 5 µL/min/mg | microsomal CLint at 1 µM [2]: ≤ 5 µL/min/mg

O=C(O)Cn1cccc(-c2cc(NCc3ccc(Cl)s3)[nH]n2)c1=O [Compound 3, 2-[3-(5-{[(5-chlorothiophen-2-yl)methyl]amino}-1H-pyrazol-3-yl)-2-oxo-1,2-dihydropyridin-1-yl]acetic acid]
microsomal CLint at 1 µM [1]: ≤ 5 µL/min/mg | microsomal CLint at 1 µM [2]: ≤ 5 µL/min/mg

CC(C)(C)C(=O)n1nc(-c2cccn(CC(=O)O)c2=O)cc1NCc1ccc(Cl)s1 [Compound 4, 2-[3-(5-{[(5-chlorothiophen-2-yl)methyl]amino}-1-(2,2-dimethylpropanoyl)-1H-pyrazol-3-yl)-2-oxo-1,2-dihydropyridin-1-yl]acetic acid]
C0 (Rat pharmacokinetics; IV 1 mg/kg): 12000 ng/mL | AUC (Rat pharmacokinetics; IV 1 mg/kg, read-out: IV AUC): 2300 ng·h/mL | Cmax (Rat pharmacokinetics; [3]): 260 ng/mL | AUC (Rat pharmacokinetics; [4]): 2300 ng·h/mL | microsomal CLint at 1 µM [1]: ≤ 5 µL/min/mg | microsomal CLint at 1 µM [2]: ≤ 5 µL/min/mg

CC(C)(C)C(=O)n1nc(-c2cccn(CCCC(=O)O)c2=O)cc1NCc1ccc(Cl)s1 [Compound 5, 4-[3-(5-{[(5-chlorothiophen-2-yl)methyl]amino}-1-(2,2-dimethylpropanoyl)-1H-pyrazol-3-yl)-2-oxo-1,2-dihydropyridin-1-yl]butanoic acid]
C0 (Rat pharmacokinetics; IV 1 mg/kg): 5400 ng/mL | AUC (Rat pharmacokinetics; IV 1 mg/kg, read-out: IV AUC): 3300 ng·h/mL | Cmax (Rat pharmacokinetics; [5]): 930 ng/mL | AUC (Rat pharmacokinetics; [6]): 2100 ng·h/mL | microsomal CLint at 1 µM [1]: 10 µL/min/mg | microsomal CLint at 1 µM [2]: 29 µL/min/mg

CC(C)(C)C(=O)n1nc(-c2cccn(CCC(N)=O)c2=O)cc1NCc1ccc(Cl)s1 [Compound 8, 3-[3-(5-{[(5-chlorothiophen-2-yl)methyl]amino}-1-(2,2-dimethylpropanoyl)-1H-pyrazol-3-yl)-2-oxo-1,2-dihydropyridin-1-yl]propanamide]
Cmax (Rat pharmacokinetics; [5]): 230 ng/mL | AUC (Rat pharmacokinetics; [6]): 120 ng·h/mL | microsomal CLint at 1 µM [2]: 100 µL/min/mg

CC(C)(N)Cn1cccc(-c2cc(NCc3ccc(Cl)s3)n(C(=O)c3ccoc3)n2)c1=O [Compound 9, 1-(2-amino-2-methylpropyl)-3-(5-{[(5-chlorothiophen-2-yl)methyl]amino}-1-(furan-3-carbonyl)-1H-pyrazol-3-yl)-1,2-dihydropyridin-2-one]
C0 (Rat pharmacokinetics; IV 1 mg/kg): 94 ng/mL | AUC (Rat pharmacokinetics; IV 1 mg/kg, read-out: IV AUC): 180 ng·h/mL | Cmax (Rat pharmacokinetics; [5]): 5.8 ng/mL | AUC (Rat pharmacokinetics; [6]): 73 ng·h/mL | microsomal CLint at 1 µM [1]: ≤ 5 µL/min/mg | microsomal CLint at 1 µM [2]: 11 µL/min/mg

CCC(C)(C)C(=O)n1nc(-c2cccn(CCC(=O)O)c2=O)cc1NCc1ccc(Cl)s1 [Compound 11, 3-[3-(5-{[(5-chlorothiophen-2-yl)methyl]amino}-1-(2,2-dimethylbutanoyl)-1H-pyrazol-3-yl)-2-oxo-1,2-dihydropyridin-1-yl]propanoic acid]
C0 (Rat pharmacokinetics; IV 1 mg/kg): 6100 ng/mL | AUC (Rat pharmacokinetics; IV 1 mg/kg, read-out: IV AUC): 3200 ng·h/mL | Cmax (Rat pharmacokinetics; [5]): 1200 ng/mL | AUC (Rat pharmacokinetics; [6]): 2100 ng·h/mL | microsomal CLint at 1 µM [1]: 14 µL/min/mg | microsomal CLint at 1 µM [2]: 31 µL/min/mg

O=C(O)CCn1cccc(-c2cc(NCc3ccc(Cl)s3)n(C(=O)c3ccoc3)n2)c1=O [Compound 12, 3-[3-(5-{[(5-chlorothiophen-2-yl)methyl]amino}-1-(furan-3-carbonyl)-1H-pyrazol-3-yl)-2-oxo-1,2-dihydropyridin-1-yl]propanoic acid]
C0 (Rat pharmacokinetics; IV 1 mg/kg): 4600 ng/mL | AUC (Rat pharmacokinetics; IV 1 mg/kg, read-out: IV AUC): 930 ng·h/mL | Cmax (Rat pharmacokinetics; [3]): 19 ng/mL | AUC (Rat pharmacokinetics; [4]): 28 ng·h/mL | microsomal CLint at 1 µM [2]: ≤ 5 µL/min/mg
